Here are results for 3 compounds from PMC5562840, “TRPM6 and TRPM7 differentially contribute to the relief of heteromeric TRPM6/7 channels from inhibition by cytosolic Mg^2+ and Mg·ATP” (Scientific Reports, 2017).

For one assay, the target named is T1, mTRPM7 (Mus musculus, UniProt Q923J1).
T1 construct: gene Trpm7; full-length mTRPM7 in pIRES2-EGFP, HEK 293 cells
Description: whole-cell patch clamp, intracellular dose response ([…] free Mg2+). The format is cell-based.

The target in a further assay is T2, mTRPM6 (Mus musculus, UniProt Q8CIR4).
T2 construct: gene Trpm6; full-length mTRPM6 (2028 aa) in pIRES2-EGFP, HEK 293 cells
Description: whole-cell patch clamp; […] inhibits currents. The format is cell-based.

Assay [1] has as its target mouse TRPM7 (mTRPM7) fused to a myc tag (mTRPM7-myc) (mouse) (UniProt Q923J1).

T1 sequence (Q923J1 whole entry): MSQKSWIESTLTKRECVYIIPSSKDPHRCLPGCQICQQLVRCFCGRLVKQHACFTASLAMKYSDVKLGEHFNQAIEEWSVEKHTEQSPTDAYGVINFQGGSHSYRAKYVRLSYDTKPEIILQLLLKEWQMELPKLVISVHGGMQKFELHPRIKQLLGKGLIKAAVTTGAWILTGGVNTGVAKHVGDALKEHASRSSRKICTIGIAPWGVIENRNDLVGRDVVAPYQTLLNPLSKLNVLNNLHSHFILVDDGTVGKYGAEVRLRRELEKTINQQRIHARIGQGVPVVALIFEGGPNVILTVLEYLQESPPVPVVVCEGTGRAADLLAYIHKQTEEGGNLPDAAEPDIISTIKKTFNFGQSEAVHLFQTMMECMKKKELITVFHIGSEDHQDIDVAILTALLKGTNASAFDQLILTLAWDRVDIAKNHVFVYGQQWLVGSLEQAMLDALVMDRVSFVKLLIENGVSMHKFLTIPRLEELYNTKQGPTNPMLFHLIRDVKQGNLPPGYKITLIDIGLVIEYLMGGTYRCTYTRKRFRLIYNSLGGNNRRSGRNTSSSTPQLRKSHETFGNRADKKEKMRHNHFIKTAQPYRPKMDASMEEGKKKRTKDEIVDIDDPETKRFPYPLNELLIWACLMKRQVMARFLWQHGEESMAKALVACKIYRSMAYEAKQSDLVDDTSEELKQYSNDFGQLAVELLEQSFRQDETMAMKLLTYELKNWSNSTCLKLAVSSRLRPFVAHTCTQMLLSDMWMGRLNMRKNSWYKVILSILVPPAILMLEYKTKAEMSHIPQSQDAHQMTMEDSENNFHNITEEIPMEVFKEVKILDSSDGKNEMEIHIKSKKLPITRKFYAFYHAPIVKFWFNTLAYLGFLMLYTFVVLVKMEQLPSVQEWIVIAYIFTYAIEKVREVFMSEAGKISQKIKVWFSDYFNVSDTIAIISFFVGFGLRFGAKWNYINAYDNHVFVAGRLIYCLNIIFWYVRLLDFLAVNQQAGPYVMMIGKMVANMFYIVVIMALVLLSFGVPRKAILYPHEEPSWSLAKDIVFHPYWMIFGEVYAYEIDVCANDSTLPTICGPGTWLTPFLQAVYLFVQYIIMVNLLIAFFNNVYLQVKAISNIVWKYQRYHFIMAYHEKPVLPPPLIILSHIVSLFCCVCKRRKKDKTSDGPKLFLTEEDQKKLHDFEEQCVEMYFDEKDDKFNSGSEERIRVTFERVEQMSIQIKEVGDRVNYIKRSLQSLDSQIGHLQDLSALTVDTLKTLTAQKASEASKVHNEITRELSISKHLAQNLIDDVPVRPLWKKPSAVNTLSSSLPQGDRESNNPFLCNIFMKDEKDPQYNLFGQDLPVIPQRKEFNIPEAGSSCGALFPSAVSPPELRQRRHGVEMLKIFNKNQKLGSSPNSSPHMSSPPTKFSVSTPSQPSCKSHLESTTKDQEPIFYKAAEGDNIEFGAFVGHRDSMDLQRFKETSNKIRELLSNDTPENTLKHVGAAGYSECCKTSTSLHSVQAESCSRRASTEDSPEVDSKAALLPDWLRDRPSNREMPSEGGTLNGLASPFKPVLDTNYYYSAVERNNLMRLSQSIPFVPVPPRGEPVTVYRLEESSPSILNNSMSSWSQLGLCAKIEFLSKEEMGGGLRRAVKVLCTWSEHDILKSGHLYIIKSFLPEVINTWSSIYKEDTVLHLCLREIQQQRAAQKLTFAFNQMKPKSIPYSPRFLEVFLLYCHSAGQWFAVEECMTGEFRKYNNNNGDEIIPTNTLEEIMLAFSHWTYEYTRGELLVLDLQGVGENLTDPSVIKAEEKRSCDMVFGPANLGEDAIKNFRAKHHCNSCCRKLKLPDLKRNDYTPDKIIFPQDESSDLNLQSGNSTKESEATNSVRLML
mouse TRPM7 (mTRPM7) fused to a myc tag (mTRPM7-myc) (mouse), sequence (Q923J1 whole entry, the tested form may be a part): as the sequence (Q923J1 whole entry) above
T2 sequence (Q8CIR4 whole entry): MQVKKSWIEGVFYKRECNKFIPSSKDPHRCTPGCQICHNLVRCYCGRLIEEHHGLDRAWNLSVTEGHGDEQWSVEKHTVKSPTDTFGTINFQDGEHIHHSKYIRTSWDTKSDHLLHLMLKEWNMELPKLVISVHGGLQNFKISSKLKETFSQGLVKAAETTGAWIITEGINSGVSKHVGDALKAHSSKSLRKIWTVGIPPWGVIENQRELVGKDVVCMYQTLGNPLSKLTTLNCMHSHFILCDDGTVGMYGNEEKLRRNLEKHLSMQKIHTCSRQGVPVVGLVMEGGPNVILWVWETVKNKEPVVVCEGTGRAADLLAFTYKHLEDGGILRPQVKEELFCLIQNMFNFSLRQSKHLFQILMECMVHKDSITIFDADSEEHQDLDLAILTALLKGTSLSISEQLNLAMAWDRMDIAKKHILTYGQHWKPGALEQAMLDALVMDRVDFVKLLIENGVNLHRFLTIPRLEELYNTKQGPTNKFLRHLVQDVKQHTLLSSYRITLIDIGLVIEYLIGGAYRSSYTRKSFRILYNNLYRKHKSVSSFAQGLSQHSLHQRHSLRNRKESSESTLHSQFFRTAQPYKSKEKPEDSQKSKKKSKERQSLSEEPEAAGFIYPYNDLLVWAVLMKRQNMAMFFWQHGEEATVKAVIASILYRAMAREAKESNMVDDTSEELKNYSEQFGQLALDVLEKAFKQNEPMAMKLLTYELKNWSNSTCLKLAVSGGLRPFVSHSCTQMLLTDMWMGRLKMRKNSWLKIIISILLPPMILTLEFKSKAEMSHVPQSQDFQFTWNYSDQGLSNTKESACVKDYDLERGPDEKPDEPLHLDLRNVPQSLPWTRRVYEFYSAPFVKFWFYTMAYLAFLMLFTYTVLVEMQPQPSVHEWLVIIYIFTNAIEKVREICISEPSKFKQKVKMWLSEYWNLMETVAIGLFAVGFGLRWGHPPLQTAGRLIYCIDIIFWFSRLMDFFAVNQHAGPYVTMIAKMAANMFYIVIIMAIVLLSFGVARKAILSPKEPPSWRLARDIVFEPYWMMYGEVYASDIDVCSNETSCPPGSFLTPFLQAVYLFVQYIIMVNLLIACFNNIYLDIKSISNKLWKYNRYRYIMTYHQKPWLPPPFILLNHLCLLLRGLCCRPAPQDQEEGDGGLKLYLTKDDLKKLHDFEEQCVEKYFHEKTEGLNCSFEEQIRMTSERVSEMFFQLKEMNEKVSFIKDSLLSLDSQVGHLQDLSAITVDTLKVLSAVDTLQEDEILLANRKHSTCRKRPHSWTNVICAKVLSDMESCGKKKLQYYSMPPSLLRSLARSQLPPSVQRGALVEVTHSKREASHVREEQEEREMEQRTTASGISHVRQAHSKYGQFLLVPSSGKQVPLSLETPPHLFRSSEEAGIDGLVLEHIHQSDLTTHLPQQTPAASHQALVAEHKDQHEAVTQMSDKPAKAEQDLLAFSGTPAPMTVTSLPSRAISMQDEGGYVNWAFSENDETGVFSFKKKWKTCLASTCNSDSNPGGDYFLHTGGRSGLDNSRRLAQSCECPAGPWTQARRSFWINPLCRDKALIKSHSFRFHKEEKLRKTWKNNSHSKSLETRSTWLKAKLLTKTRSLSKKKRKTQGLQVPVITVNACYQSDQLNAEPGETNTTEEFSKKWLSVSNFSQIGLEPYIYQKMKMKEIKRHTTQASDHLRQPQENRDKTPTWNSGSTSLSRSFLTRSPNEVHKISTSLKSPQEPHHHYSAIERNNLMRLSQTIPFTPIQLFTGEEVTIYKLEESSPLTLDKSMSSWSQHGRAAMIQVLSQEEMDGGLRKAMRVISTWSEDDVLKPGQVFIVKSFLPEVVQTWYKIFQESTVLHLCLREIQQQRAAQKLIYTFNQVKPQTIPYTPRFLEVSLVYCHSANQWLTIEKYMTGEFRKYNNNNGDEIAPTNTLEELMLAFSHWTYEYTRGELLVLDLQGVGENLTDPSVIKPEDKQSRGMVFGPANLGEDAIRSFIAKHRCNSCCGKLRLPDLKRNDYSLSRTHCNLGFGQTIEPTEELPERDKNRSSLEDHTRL

As for `Nc1ncnc2c1ncn2[C@@H]1O[C@H](COP(=O)(O)OP(=O)(O)OP(=O)(O)O)[C@@H](O)[C@H]1O` [Mg·ATP], at mTRPM7, the IC50 was 2930 µM.

On to `c1ccc2c(c1)CCC[C@H]2Nc1nc2ccccc2[nH]1` [NS8593], for which the “whole-cell patch clamp; 10 μM inhibits currents” value at mTRPM6 is “We noted that NS8593 caused a rapid irreversible inhibition of mTRPM6”.

For the compound “mouse TRPM6 with a C-terminal yellow fluorescent protein tag (mTRPM6-YFP), Q8CIR4 1-2028”, the whole-cell currents at break-in (pre-activated outward currents) in HEK 293 cells co-transfected with mTRPM6 and mTRPM7, against cells with mTRPM7 alone in assay [1] turned out to be 10 fold.
